Measurements published in article PMC6105804, “In Vitro and In Vivo Evaluation of APX001A/APX001 and Other Gwt1 Inhibitors against Cryptococcus” (Antimicrobial Agents and Chemotherapy, 2018).
≈ marks a conversion by molar mass, not a printed value. Like-named read-outs stand apart in the source and are kept apart here.

Assays:
C. neoformans strain H99 = assay: Murine cryptococcal meningitis model with ABT, dose-response study; type: in vivo, Cryptococcus neoformans; conditions: control animals with daily 100-mg/kg ABT without an APX compound
Procedure: A dose-response study was performed with APX2096 and APX2097 to confirm the observed activity. In this study, QD doses of 7.5, 20, and 60 mg/kg were evaluated in conjunction with the administration of ABT. A 60-mg/kg dose QD without ABT was also evaluated as a control.
FIG 3 Dose-response of APX2096 and APX2097 in a murine model of cryptococcal meningitis in conjunction with ABT administration. ABT at 100 mg/kg was administered orally to male CD-1 mice at 2 h prior to each APX compound dose. Mice were injected with 4.8 × 10^4 CFU C. neoformans strain H99 per mouse via the lateral tail vein at time zero. Treatment with the APX compounds was initiated at 1 h postinfection by i.p. administration and continued for 7 days, with 100-mg/kg ABT being administered orally 2 h prior to each APX compound dose. The correction factors for prodrug potencies versus the potencies of the active moieties were similar enough such that the same factor (1.3) was used for all APX compounds. Fungal burden data were log10 transformed and evaluated using Kruskal-Wallis tests with Dunn's multiple-comparison test for post hoc analysis (Prism software, v5; GraphPad Software, Inc., San Diego, CA). […] A P value of ≤0.05 was considered statistically significant (*, P ≤ 0.05; **, P ≤ 0.01; ***, P ≤ 0.001). The 95% confidence interval (CI) is presented.
C. neoformans strain H99 was grown in yeast extract-peptone-dextrose broth at 30°C on a shaker (220 rpm) for 24 h, centrifuged (1,980 relative centrifugal force), and washed twice in phosphate-buffered saline (PBS), resuspended in PBS, and quantified by hemacytometric count. Male CD-1 mice were infected with ∼5 × 10^4 CFU per mouse via lateral tail vein injection of 100 μl. Mice were weighed, and treatment was begun within 1 h after infection. Treatments were administered daily for 7 days. Mice were weighed daily and observed for acute and chronic adverse symptoms. Mice were sacrificed on day 8, and the brain and left lung were homogenized and cultured for quantitative determination of the tissue burden (number of CFU per gram of tissue). Tissues were homogenized for 25 s in 1 ml phosphate-buffered saline using two 6.5-mm steel beads and a Mini-Beadbeater 16 apparatus (Biospec Products, Inc., Bartlesville, OK) and serially diluted in 10-fold steps. Aliquots (100 μl) of homogenate were plated and incubated for 3 to 7 days at 37°C. Fungal burden data were log10 transformed and evaluated using Kruskal-Wallis tests with Dunn's multiple-comparison test for post hoc analysis (Prism software, v5; GraphPad Software, Inc., San Diego, CA). A P value of ≤0.05 was considered statistically significant.

A. fumigatus MYA3626 = assay: Broth microdilution susceptibility testing for molds (CLSI M38-A2); type: cell-based
Text: (§1) C. neoformans strains H99, DUMC 118.00, and DUMC 158.03 and C. gattii strains R272 and RSA-MW-3515 were obtained from Duke University. C. albicans 90028, A. fumigatus MYA3626, C. neoformans 14116, C. neoformans 76484, and the pathogenic Cryptococcus reference strains panel (ATCC MP-11) were obtained from the American Type Culture Collection (ATCC; Manassas, VA, USA). The ATCC MP-11 panel consists of strains representing eight molecular types and three subtypes of C. neoformans and C. gattii.
(§2) To establish the antimicrobial activity of the APX001A analogs, broth microdilution susceptibility testing was performed according to Clinical and Laboratory Standards Institute (CLSI) guidelines M27-A3 ([47]) for yeasts and M38-A2 for molds ([48]). APX001A and analogs were first diluted in DMSO to obtain intermediate dilutions. These were further diluted in microtiter plates to obtain a final concentration of 2 to 0.002 μg/ml. One microliter of DMSO was added to the no-drug control wells. The solutions were mixed on a plate shaker for 10 min, and the plates were incubated at 35°C for 40 to 48 h (C. albicans, A. fumigatus) and 72 h (C. neoformans). The minimum concentration that led to a 50% reduction in fungal growth compared to that for the control (determined with the aid of a reading mirror) was determined as the MIC for C. albicans and C. neoformans. The minimum concentration that led to the shortening of hyphae compared to the hyphal growth in DMSO control wells was determined as the minimum effective concentration (MEC) for A. fumigatus (as read for the echinocandins). The use of the MIC and MEC endpoints for APX001A (formerly E1210) against yeasts and molds, respectively, has been described previously ([19][–][21]). For the cryptococcal synergy studies, APX001A and APX2020 MIC values were read at 50% inhibition.

C. gattii = assay: Broth microdilution susceptibility testing (CLSI M27-A3); type: cell-based; conditions: Cryptococcus gattii
Text: as §1, §2

C. albicans 90028 = assay: as above; type: cell-based, Candida albicans
Text: as §1, §2

[1] = Single-dose mouse pharmacokinetics of prodrugs with or without ABT; type: in vivo; conditions: for Ratio of AUC with ABT/AUC without ABT, i.p. dosing / Ratio of AUC with ABT/AUC without ABT, p.o. dosing: 26 mg/kg prodrug; for AUC: male, CD-1, mouse, plasma, 26 mg/kg
Procedure: The area under the curve (AUC) was calculated from time zero to the time of the last measurable concentration. The active metabolite concentrations in plasma (APX001A, APX2039, APX2020, and APX2041) were determined by liquid chromatography-tandem mass spectrometry. PK parameters were determined using Phoenix WinNonlin (v7.0) software and a noncompartmental model.

C. neoformans [2] = assay: Broth microdilution susceptibility testing (CLSI M27-A3); type: cell-based, Cryptococcus neoformans; conditions: for MIC: Cryptococcus neoformans
Text: as §1, §2

[3] = system: FLC-susceptible and FLC-nonsusceptible/resistant strains of C. neoformans and C. gattii; assay: Broth microdilution, summary over the 18-strain Cryptococcus collection; type: cell-based, Cryptococcus neoformans and Cryptococcus gattii; conditions: for MIC90 / MIC: 18 strains of C. neoformans and C. gattii; for MIC: read-out: Geometric mean MIC
Procedure: as §2, with “The minimum concentration that led to the shortening of hyphae compared to the hyphal growth in DMSO control wells was determined as the minimum effective concentration (MEC) for A. fumigatus (as read for the echinocandins).” left out

C. neoformans [4] = system: C. neoformans; design: method as in PMID 15078612; conditions: U.S. isolates; cited from earlier work
[5] = Aspergillus fumigatus, MYA3626; read-out: MIC or MEC for A. fumigatus MYA3626
[6] = C. gattii isolate MYA-4093, read-out: MIC
[7] = C. gattii isolate MYA-4094, read-out: MIC
[8] = C. gattii isolate MYA-4560 (first listing, r17), read-out: MIC
[9] = C. gattii isolate MYA-4560 (second listing, r21), read-out: MIC
[10] = C. gattii isolate MYA-4561, read-out: MIC
[11] = C. gattii isolate MYA-4562, read-out: MIC
[12] = C. gattii isolate MYA-4563, read-out: MIC
[13] = C. gattii isolate MYA-4877, read-out: MIC
[14] = C. gattii isolate RSA-MW-3615 (FLC resistant), read-out: MIC
[15] = Table 1, 50% growth inhibition for FLC, caspofungin and APX compounds, 100% for AMB, read-out: MIC, C. gattii WM276
[16] = Candida albicans, 90028; read-out: MIC, C. albicans 90028
[17] = intraperitoneal, AUC of analyte after 26 mg/kg prodrug, 100 mg/kg ABT orally 2 h before, read-out: Avg AUC resulting from 26-mg/kg dose, i.p. dosing + ABT
[18] = ip, AUC of analyte after 26 mg/kg of the corresponding prodrug, male CD-1 mice, no ABT, read-out: Avg AUC resulting from 26-mg/kg dose, i.p. dosing
[19] = po, AUC of analyte after 26 mg/kg prodrug, 100 mg/kg ABT orally 2 h before, read-out: Avg AUC resulting from 26-mg/kg dose, p.o. dosing + ABT
[20] = po, AUC of analyte in plasma after 26 mg/kg of the corresponding prodrug, male CD-1 mice, no ABT, read-out: Avg AUC resulting from 26-mg/kg dose, p.o. dosing
[21] = 72 h, Table 1, 50% growth inhibition for FLC, caspofungin and APX compounds, 100% for AMB, 72 h, read-out: MIC, C. neoformans H99
[22] = C. neoformans isolate 14116, read-out: MIC
[23] = C. neoformans isolate 76484, read-out: MIC
[24] = C. neoformans isolate DUMC 118.00 (FLC resistant), read-out: MIC
[25] = C. neoformans isolate DUMC 158.03 (FLC resistant), read-out: MIC
[26] = C. neoformans isolate MYA-4564, read-out: MIC
[27] = C. neoformans isolate MYA-4565, read-out: MIC
[28] = C. neoformans isolate MYA-4566, read-out: MIC
[29] = C. neoformans isolate MYA-4567, read-out: MIC
[30] = Table 2, C. neoformans isolate H99, read-out: MIC

## Nn1nnc2ccccc21 [ABT, 1-Aminobenzotriazole, reference compound]
C. neoformans strain H99
  mean counts in brain tissue: 8.07 ± 0.28 log10 CFU/g
  mean counts in lung tissue: 7.04 ± 0.34 log10 CFU/g

## Nc1ncccc1-c1cc(Cc2ccc(OCc3ccccc3)nc2)no1 [APX2041]
A. fumigatus MYA3626; [5]
  MIC: 0.016 µg/mL
C. gattii; [6]
  MIC: 0.125 µg/mL
C. gattii; [7]
  MIC: 0.063 µg/mL
C. gattii; [8]
  MIC: 0.016 µg/mL
C. gattii; [9]
  MIC: 0.016 µg/mL
C. gattii; [10]
  MIC: 0.031 µg/mL
C. gattii; [11]
  MIC: 0.031 µg/mL
C. gattii; [12]
  MIC: 0.031 µg/mL
C. gattii; [13]
  MIC: 0.016 µg/mL
C. gattii; [14]
  MIC: 0.016 µg/mL
C. gattii; [15]
  MIC: 0.016 µg/mL
C. albicans 90028; [16]
  MIC: 0.031 µg/mL
[1]
  Ratio of AUC with ABT/AUC without ABT, i.p. dosing: 15.5
  Ratio of AUC with ABT/AUC without ABT, p.o. dosing: 14.3
[1]; [17]
  AUC: 72600 ± 9070 ng·h/mL
[1]; [18]
  AUC: 4680 ± 730 ng·h/mL
[1]; [19]
  AUC: 49900 ± 10300 ng·h/mL
[1]; [20]
  AUC: 3490 ± 270 ng·h/mL
C. neoformans [2]; [21]
  MIC: 0.031 µg/mL
C. neoformans [2]; [22]
  MIC: 0.016 µg/mL
C. neoformans [2]; [23]
  MIC: 0.016 µg/mL
C. neoformans [2]; [24]
  MIC: 0.063 µg/mL
C. neoformans [2]; [25]
  MIC: 0.125 µg/mL
C. neoformans [2]; [26]
  MIC: 0.016 µg/mL
C. neoformans [2]; [27]
  MIC: 0.125 µg/mL
C. neoformans [2]; [28]
  MIC: 0.063 µg/mL
C. neoformans [2]; [29]
  MIC: 0.031 µg/mL
C. neoformans [2]; [30]
  MIC: 0.031 µg/mL
[3]
  MIC90: 0.125 µg/mL
  MIC: 0.034 µg/mL

## Nc1ncccc1-c1cc(Cc2ccc(Oc3cccc(F)n3)cc2)no1 [APX2039]
A. fumigatus MYA3626; [5]
  MIC: 0.125 µg/mL
C. gattii; [6]
  MIC: 0.016 µg/mL
C. gattii; [7]
  MIC: 0.016 µg/mL
C. gattii; [8]
  MIC: 0.008 µg/mL
C. gattii; [9]
  MIC: 0.008 µg/mL
C. gattii; [10]
  MIC: 0.016 µg/mL
C. gattii; [11]
  MIC: 0.016 µg/mL
C. gattii; [12]
  MIC: 0.016 µg/mL
C. gattii; [13]
  MIC: 0.008 µg/mL
C. gattii; [14]
  MIC: 0.004 µg/mL
C. gattii; [15]
  MIC: 0.004 µg/mL
C. albicans 90028; [16]
  MIC: 0.031 µg/mL
[1]
  Ratio of AUC with ABT/AUC without ABT, i.p. dosing: 8.3
  Ratio of AUC with ABT/AUC without ABT, p.o. dosing: 8.6
[1]; [17]
  AUC: 97200 ± 12600 ng·h/mL
[1]; [18]
  AUC: 11800 ± 1830 ng·h/mL
[1]; [19]
  AUC: 91300 ± 20800 ng·h/mL
[1]; [20]
  AUC: 10700 ± 480 ng·h/mL
[1]; oral administration of prodrug with ABT
  fold higher exposure than the three other compounds: approximately 2 fold
[1]; prodrugs administered i.p.
  fold higher AUC than the other compounds: approximately 2 fold
C. neoformans [2]; [21]
  MIC: 0.008 µg/mL
C. neoformans [2]; [22]
  MIC: 0.004 µg/mL
C. neoformans [2]; [23]
  MIC: 0.004 µg/mL
C. neoformans [2]; [24]
  MIC: 0.016 µg/mL
C. neoformans [2]; [25]
  MIC: 0.031 µg/mL
C. neoformans [2]; [26]
  MIC: 0.004 µg/mL
C. neoformans [2]; [27]
  MIC: 0.031 µg/mL
C. neoformans [2]; [28]
  MIC: 0.008 µg/mL
C. neoformans [2]; [29]
  MIC: 0.016 µg/mL
C. neoformans [2]; [30]
  MIC: 0.004 µg/mL
C. neoformans [2]; from MIC values of Table 1
  fold improved anti-C. neoformans H99 activity vs APX001A: 32 fold
[3]
  MIC90: 0.031 µg/mL
  MIC: 0.01 µg/mL
[3]; Table 1 strains H99 and WM276
  fold lower MIC values than APX001A versus Cryptococcus: 32 fold

## CC(=O)N1CCN(c2ccc(OCC3COC(Cn4ccnc4)(c4ccc(Cl)cc4Cl)O3)cc2)CC1 (centres unmarked) [ketoconazole]
C. neoformans [4]
  MIC90: 0.06 µg/mL (≈ 0.113 µM)

## Nc1[nH]c(=O)ncc1F [flucytosine]
C. neoformans [4]
  MIC90: 8 µg/mL (≈ 62 µM)

## CCC(C)n1ncn(-c2ccc(N3CCN(c4ccc(OCC5COC(Cn6cncn6)(c6ccc(Cl)cc6Cl)O5)cc4)CC3)cc2)c1=O (centres unmarked) [itraconazole]
C. neoformans [4]
  MIC90: 0.125 µg/mL (≈ 0.177 µM)

## CC[C@H](C)C[C@H](C)CCCCCCCCC(=O)N[C@H]1C[C@@H](O)[C@@H](NCCN)NC(=O)[C@@H]2[C@@H](O)CCN2C(=O)[C@H]([C@H](O)CCN)NC(=O)[C@H]([C@H](O)[C@@H](O)c2ccc(O)cc2)NC(=O)[C@@H]2C[C@@H](O)CN2C(=O)[C@H]([C@@H](C)O)NC1=O [CAS, caspofungin, reference compound]
A. fumigatus MYA3626; Aspergillus fumigatus, MYA3626, read-out: MIC or MEC for A. fumigatus MYA3626
  MIC: 0.25 µg/mL
C. albicans 90028; Candida albicans, 90028, read-out: MIC, C. albicans 90028
  MIC: 0.5 µg/mL
